According to patent publication US20040101915A1, “Diagnosis and treatment of chemoresistant tumors” (IRM LLC, a Delaware Limited Liability Company, priority 2002, published 2004):

What was measured:
K422 cells [1] = assay: MTT cytotoxicity assay, K422 cells; type: cell-based, human; details: for difference in IC50 concentrations in K422 cells compared to the other cell lines tested: 24 hours, MTT, other lines DOHH2, Jurkat, Jurkat bcl-2, RL-7
Description: An MTT cytotoxicity assay was used to determine the number of viable cells following treatment with various apoptotic stimuli. Cells (100 μl of a 8×10^5 cells/ml suspension) were added to each well of a 96 well plate and incubated with etoposide or doxorubicin for 24-72 h. MTT dye solution was then added for 4 h, the blue crystal product was solubilized over night at 37° C. and absorbance was measured at 570 nm. Because the MTT assay also measures growth arrest, the MTT results were verified with caspase activity assays.

K422 cells [2] = assay: Caspase activity assay (AFC release from DEVD-AFC) in lysates of treated cells; type: cell-based, human; details: 100 nM
Description: Caspase activities were assayed as previously described (Stennicke and Salvesen, 2000) at 37° C. in 40 μl of caspase buffer (50 mM HEPES pH 7.4, 100 mM NaCl, 10% sucrose, 1 mM EDTA, 0.1% CHAPS and 10 mM DTT) containing 100 μM of the fluorogenic peptide Ac-DEVD-AFC. Activity was measured continuously over the indicated time by the release of AFC from DEVD-AFC using a Molecular Devices fluorometer in the kinetic mode and with the 405-510 filter pair. For the assessment of caspase activity in intact cells after treatment with different apoptosis stimuli 10-20 μg of total cell protein (Triton X-100 extracts) was used in 40 μl of caspase buffer (containing 100 μM DEVD-AFC). For in-vitro initiation of caspase activity by cytochrome c Triton X-100 free, hypotonic cytosolic extracts were prepared and 10 μM horse heart cytochrome c (Sigma) together with 1 mM dATP or recombinant active caspase-8 (20 nM) were used for caspase activation (Deveraux et al., 1997). For reconstitution of RL-7 hypotonic cell extracts recombinant pro-caspase-3 was used as previously described (Stennicke et al., 1998).

K422 cells [3] = assay: Western blot analysis of caspase processing in treated FL cells; type: cell-based, human; details: 100 nM; for processing of caspase-8: DOHH2, K422 and RL-7; for caspase processing of the caspases-2, -3, -7 and -9: K422 versus DOHH2 and RL-7
Text: Western blot analysis was used to evaluate protein expression.

K422 cells [4] = assay: Morphological examination of treated FL cells; type: cell-based, human; details: FL cells DOHH2, K422, RL-7
NCI 60 tumor cell panel = details: NCI database; cited from earlier work
[5] = test system: DR5 protein levels in DOHH2 cells; details: 4.25 μM etoposide, Western blot
Description: Western blot analysis was used to evaluate protein expression. Cells (2.4×10^6 well) were seeded in 6 well plates and treated with the respective apoptosis stimuli. After the indicated time periods cells were washes in ice cold PBS and lysed in 1% Triton X-100 containing hypotonic lysis buffer (20 mM HEPES pH 7.5, 10 mM KCl, 1.5 mM MgCl2, 1 mM EDTA and 1 mM DTT). Protein (40 μg) was electorphoresed under reducing conditions on 10-20% gradient SDS-polyacrylamide gels. After electroblotting on nitrocellulose membranes (Schleicher and Schuell) the membranes were blocked for 1 h with 10% non-fat milk powder and immunoblotted for 1 h with the following primary antibodies: rabbit anti-DR5 polyclonal antibody (1:500, Cayman Chemicals), mouse anti-Fas monoclonal antibody CH-11 (MBL), rabbit anti-caspase-3 polyclonal antibody (1:1000, Pharmingen), rabbit anti-caspase-8 polyclonal antibody (1:1000, Pharmingen), mouse anti-caspase-9 monoclonal antibody 5B4 (1:1000, MBL), mouse anti-bcl-2 monoclonal antibody (1:500, Pharmingen) or goat anti-actin polyclonal antibody (1:200, Santa Cruz Biotechnology). Membranes were washed five times with TBS/0.05% Tween, incubated with the respective peroxidase conjugated affinity purified secondary antibody (1:5000, Biorad) for 30 min, washed again five times and developed using enhanced chemiluminescence (ECL, Amersham).

RL-7 cells = assay: MTT cytotoxicity assay, RL-7 cells; type: cell-based, human; details: etoposide 0.425 μM 4 hours then agonistic anti-DR5 antibodies 12 hours
DOHH2 cells = assay: MTT cytotoxicity assay, DOHH2 cells; type: cell-based, human; details: etoposide 0.425 μM 4 hours then agonistic anti-DR5 antibodies 12 hours, compared to drug or antibody alone

| SMILES | difference in IC50 concentrations in K422 cells compared to the other cell lines tested (K422 cells [1]) | caspase activation (enzymatic activity) (K422 cells [2]) | processing of caspase-8 (K422 cells [3]) | caspase processing of the caspases-2, -3, -7 and -9 (K422 cells [3]) | classical features of apoptosis (morphology) (K422 cells [4]) | sensitivity of NCI 60 tumor cell panel (NCI 60 tumor cell panel) | DR5 protein levels following exposure [5] | effect of etoposide pretreatment on apoptosis induced by anti-DR5 antibody (K422 cells [1]; K422, etoposide 0.425 μM 4 hours then agonistic anti-DR5 antibodies 12 hours) | effect of etoposide pretreatment on apoptosis induced by anti-DR5 antibody (RL-7 cells) | effect of etoposide pretreatment on apoptosis induced by anti-DR5 antibody (DOHH2 cells) |
| --- | --- | --- | --- | --- | --- | --- | --- | --- | --- | --- |
| C[C@H]1CCC/C=C/[C@@H]2C[C@H](O)C[C@H]2[C@H](O)/C=C/C(=O)O1 [Brefeldin A] | 6 fold | induced caspase activation | remained unprocessed in all of the cell lines | only in K422 but not DOHH2 or the caspase-3 deficient RL-7 cells | only K422 exhibited the classical features of apoptosis | one of the most sensitive cell lines is NCI/ADR |  |  |  |  |
| CO[C@@H]1[C@H]([N+](C)(C)C)CC2O[C@]1(C)n1c3ccccc3c3c4c(c5c6ccccc6n2c5c31)C(=O)NC4 [Staur-F3] | 25 fold | induced caspase activation | remained unprocessed in all of the cell lines | only in K422 but not DOHH2 or the caspase-3 deficient RL-7 cells | only K422 exhibited the classical features of apoptosis |  |  |  |  |  |
| COc1cccc2c1C(=O)c1c(O)c3c(c(O)c1C2=O)C[C@@](O)(C(=O)CO)C[C@@H]3O[C@H]1C[C@H](N)[C@H](O)[C@H](C)O1 [doxorubicin] |  |  |  |  |  |  | significantly increased |  |  |  |
| COc1cc([C@@H]2c3cc4c(cc3[C@@H](O[C@@H]3O[C@@H]5CO[C@@H](C)O[C@H]5[C@H](O)[C@H]3O)[C@H]3COC(=O)[C@H]23)OCO4)cc(OC)c1O [etoposide] |  |  |  |  |  |  | significantly increased | negligible effect | negligible effect | significantly increased apoptosis |
